Earlier results as cited in US20060099667A1, “Method for performing restrained dynamics docking of one or multiple substrates on multi-specific enzymes” (priority 2002, published 2006).
“Also recorded” adds a separate entry of the source. Counter-ions that a name gives are not always drawn.

Assays:
CYP3A7 = CYP3A7 (Homo sapiens, UniProt P24462)
CYP3A4 = CYP3A4 (Homo sapiens, UniProt P08684)
CYP3A5 = CYP3A5 (Homo sapiens, UniProt P20815)
Sequence of CYP3A5 (P20815 whole entry): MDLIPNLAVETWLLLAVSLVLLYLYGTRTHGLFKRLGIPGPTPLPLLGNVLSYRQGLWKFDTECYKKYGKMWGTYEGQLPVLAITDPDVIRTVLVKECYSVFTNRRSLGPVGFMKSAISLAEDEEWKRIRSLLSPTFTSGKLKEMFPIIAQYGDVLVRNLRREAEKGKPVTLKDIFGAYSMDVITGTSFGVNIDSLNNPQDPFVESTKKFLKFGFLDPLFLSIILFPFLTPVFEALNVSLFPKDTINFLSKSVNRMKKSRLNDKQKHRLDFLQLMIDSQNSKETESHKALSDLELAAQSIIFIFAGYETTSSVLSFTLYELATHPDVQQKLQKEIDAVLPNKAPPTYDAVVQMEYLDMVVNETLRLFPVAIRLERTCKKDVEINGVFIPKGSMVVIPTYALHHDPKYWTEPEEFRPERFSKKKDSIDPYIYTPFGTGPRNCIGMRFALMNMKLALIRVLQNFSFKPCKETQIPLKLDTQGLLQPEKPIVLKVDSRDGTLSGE

Sequence of CYP3A7 (P24462 whole entry): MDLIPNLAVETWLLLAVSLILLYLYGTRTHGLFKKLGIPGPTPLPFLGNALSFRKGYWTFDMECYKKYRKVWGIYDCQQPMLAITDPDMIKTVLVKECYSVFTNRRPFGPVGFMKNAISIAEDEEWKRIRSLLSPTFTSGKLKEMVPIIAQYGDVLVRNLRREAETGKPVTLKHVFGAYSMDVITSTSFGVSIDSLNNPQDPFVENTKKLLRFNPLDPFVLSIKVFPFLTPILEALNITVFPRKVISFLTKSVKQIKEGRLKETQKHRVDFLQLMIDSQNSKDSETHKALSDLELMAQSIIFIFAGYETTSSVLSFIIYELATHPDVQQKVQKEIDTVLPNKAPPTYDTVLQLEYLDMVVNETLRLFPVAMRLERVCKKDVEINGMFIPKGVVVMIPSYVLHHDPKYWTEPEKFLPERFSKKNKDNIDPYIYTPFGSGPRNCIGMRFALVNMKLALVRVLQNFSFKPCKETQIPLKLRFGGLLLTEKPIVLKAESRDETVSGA
Sequence of CYP3A4 (P08684 whole entry): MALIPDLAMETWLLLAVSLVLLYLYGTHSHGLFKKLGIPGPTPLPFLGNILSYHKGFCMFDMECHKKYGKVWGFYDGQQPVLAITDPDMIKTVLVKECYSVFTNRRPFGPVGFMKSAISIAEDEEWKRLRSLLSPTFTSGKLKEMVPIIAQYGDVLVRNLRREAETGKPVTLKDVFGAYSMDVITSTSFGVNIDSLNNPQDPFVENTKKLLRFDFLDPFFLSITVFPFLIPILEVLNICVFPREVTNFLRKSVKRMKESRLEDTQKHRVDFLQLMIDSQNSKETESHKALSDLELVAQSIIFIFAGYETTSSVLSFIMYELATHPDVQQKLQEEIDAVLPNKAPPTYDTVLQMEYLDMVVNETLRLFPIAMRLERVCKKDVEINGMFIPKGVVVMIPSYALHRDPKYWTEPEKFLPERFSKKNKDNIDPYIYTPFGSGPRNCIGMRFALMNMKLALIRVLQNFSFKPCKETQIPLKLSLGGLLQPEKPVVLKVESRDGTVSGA

SMILES	position of oxidation (CYP3A7)	position of oxidation (CYP3A4)	position of oxidation (CYP3A5)
C[C@]12CC[C@H](OS(=O)(=O)O)CC1=CC[C@@H]1[C@@H]2CC[C@]2(C)C(=O)CC[C@@H]12 [DHEA 3 sulfate conjugate]	exclusively on the 16α position	–	–
C[C@]12CC[C@H]3[C@@H](CCC4=CC(=O)CC[C@@]43C)[C@@H]1CC[C@@H]2O [testosterone]	both 6β and 16α position	exclusively at the 6β position; also recorded: almost exclusively in the 6β position	almost exclusively in the 6β position
